Assay results from US12403184B2, “Compositions and methods for treating neurodegenerative disroders” (priority 2018, dated 2025).
Where no end group is shown, it is not given here.

Columns and labels:
ATAD3A = molecular target: T1, ATAD3A (Mus musculus, UniProt Q925I1); assay: ATAD3A dimerization by western blot, Neuro2A cells; type: cell-based; conditions: Neuro2a cells exposed to 3-NP, non-reducing conditions
T1 construct: endogenous in cells; host or cells: Neuro2A cells
T1 sequence (Q925I1 1-591): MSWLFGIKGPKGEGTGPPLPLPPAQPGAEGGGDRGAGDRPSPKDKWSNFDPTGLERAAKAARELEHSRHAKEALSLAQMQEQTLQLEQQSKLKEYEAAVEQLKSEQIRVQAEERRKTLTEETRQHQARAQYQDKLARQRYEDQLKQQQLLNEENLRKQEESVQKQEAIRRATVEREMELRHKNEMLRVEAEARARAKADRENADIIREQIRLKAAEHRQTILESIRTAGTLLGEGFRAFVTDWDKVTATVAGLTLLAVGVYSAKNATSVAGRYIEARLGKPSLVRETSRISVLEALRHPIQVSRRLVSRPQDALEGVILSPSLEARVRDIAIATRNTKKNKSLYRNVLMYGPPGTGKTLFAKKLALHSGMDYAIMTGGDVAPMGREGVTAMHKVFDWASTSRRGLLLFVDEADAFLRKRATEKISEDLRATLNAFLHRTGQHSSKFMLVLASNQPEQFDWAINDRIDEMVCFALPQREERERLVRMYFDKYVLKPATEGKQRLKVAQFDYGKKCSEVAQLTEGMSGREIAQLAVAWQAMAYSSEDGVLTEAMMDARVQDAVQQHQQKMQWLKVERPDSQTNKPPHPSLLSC
Protocol: To analyze dimerization of ATAD3A under non-reducing conditions, the cells or tissues were harvested and lysed with total lysates buffer. An equal amount of proteins was subject to 8% SDS-PAGE analysis in the presence or absence of β-mercaptoethanol (β-ME). For in vitro BMH crosslinking, the cell lysates were incubated with 1 mM BMH at r.t. for up to 25 min and quenched with 0.1% β-ME, followed by SDS-PAGE analysis. For in-vivo crosslinking, the cells were treated with cell-permeable crosslinker BMH (1 mM) for 20 min at 37° C. After crosslinking, the cells were quenched in PBS with 0.1% β-ME. For DSP crosslinking, the cells were treated with cell-permeable crosslinker for 5 min at 37° C., followed by quenching and washing with 10 mM Glycine in PBS. For formaldehyde (FA) crosslinking, the cells were incubated with PBS buffer containing 1% FA for 20 min at r.t., and the crosslinking reaction was terminated by washing in PBS containing 100 mM glycine. The cells were then lysed and subject to 8% SDS-PAGE analysis. For DTSSP crosslinking of proteins in mitochondrial fractions, isolated mitochondria samples were suspended in the mitochondrial lysis buffer (250 mM sucrose, 20 mM HEPES-NaOH, pH 7.5, 10 mM KCl, 1.5 mM MgCl2, 1 mM EDTA, 1 mM EGTA and protease inhibitor). An equal amount of crude mitochondria was incubated at 30° C. in the presence of 0.5 mM DTSSP. […]

Drp1/ATAD3A = molecular target: T2, Drp1/ATAD3A (Mus musculus, UniProt Q925I1); assay: Immunoprecipitation of Drp1/ATAD3A binding in mouse striatal cells; type: cell-based
T2 construct: The total lysates of cells or mouse striatum were subject to IP analysis; endogenous in cells; host or cells: HdhQ7 / HdhQ111 mouse striatal cells; wild-type mouse striatal cells exposed to 3-NP
T2 sequence (Q925I1 2-591 limits assumed): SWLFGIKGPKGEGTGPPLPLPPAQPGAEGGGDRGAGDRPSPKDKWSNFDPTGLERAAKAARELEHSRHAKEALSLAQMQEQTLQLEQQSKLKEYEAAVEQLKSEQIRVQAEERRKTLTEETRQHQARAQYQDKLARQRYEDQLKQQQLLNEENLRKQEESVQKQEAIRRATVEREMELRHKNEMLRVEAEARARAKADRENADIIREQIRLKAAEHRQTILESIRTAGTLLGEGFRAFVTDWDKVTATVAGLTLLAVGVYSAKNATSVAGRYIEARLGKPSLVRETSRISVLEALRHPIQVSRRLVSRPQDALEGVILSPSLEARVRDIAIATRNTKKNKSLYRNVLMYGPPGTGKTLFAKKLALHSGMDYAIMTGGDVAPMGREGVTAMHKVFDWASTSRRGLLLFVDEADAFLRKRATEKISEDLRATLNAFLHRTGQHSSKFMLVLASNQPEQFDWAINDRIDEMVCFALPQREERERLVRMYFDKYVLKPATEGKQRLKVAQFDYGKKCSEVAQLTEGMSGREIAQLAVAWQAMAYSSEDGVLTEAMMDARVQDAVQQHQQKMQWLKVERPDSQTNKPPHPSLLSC
Protocol: Cells and mouse brain tissues were harvested and lysed in total lysis buffer ([…], pH 7.9, […], […], 1% Triton X-100, and protease inhibitor cocktail) for 30 mins on ice and centrifuged at 12,000×g for 10 min at 4° C. The supernatants were incubated with the indicated primary antibodies or control IgG (sc-2025 and sc-2027, Santa Cruz Biotechnology) overnight at 4° C., followed by incubation with protein A/G beads (sc-2003, Santa Cruz Biotechnology) for 2 h at 4° C. The immunoprecipitates were washed with lysis buffer three times for a total of 30 min and then subject to WB analysis.

O=C(O)CC[N+](=O)[O-] [3-NP, 3-nitropropionic acid, reference compound]
ATAD3A dimerization (ATAD3A): increased | interaction between Drp1 and ATAD3A (Drp1/ATAD3A; wildtype mouse striatal cells, 3-NP 5 mM for 4 h): induced

YGRKKRRQRRR-GG-EERRKT-NH2 (YGRKKRRQRRRGGEERRKT-NH2) [DA2, peptide from ATAD3A coiled-coil region homologous to Drp1, conjugated to TAT47-57]
binding of Drp1/ATAD3A (Drp1/ATAD3A; HdhQ111 cells, peptide 1 μM/day for 4 days, vs TAT): a trend toward inhibition
